Measured values published in US20070172521A1, “Levetiracetam formulations and methods for their manufacture” (priority 2006, published 2007).

Assay: Particle size of the levetiracetam used
Format: physicochemical
Settings: levetiracetam used in the examples
Protocol: In order to avoid possible handling difficulties, the levetiracetam used preferably comprises particles having a particle size distribution such that d(0.1) is Not Less Than (NLT) about 0.6 μm, d(0.5) is from about 10 to about 30 μm, and d(0.9) is Not More Than (NMT) about 65 μm. In addition, the Bulk Density is NLT 0.2 g/cm^3, and the Tapped Density is NLT 0.35 g/cm^3. […] To minimize the impact of particle size on the levetiracetam release rate, a disintegrant was added intra- and extra-granularly. Although the resulting dissolution rate is somewhat slower than that of the commercial product, the product of present invention is found to be bio-equivalent to the marketed product in both fasting and food bio-equivalent studies.

Question: With `CC[C@@H](C(N)=O)N1CCCC1=O` [levetiracetam, (−)-(S)-(alpha)-ethyl-2-oxo-1-pyrrolidine acetamide] as the molecule, how does the Particle size read?
Answer: about 50 μm
